What was measured:
Assay type in all cases: cell-based
[1] = system: non-small cell lung cancer (NSCLC) cell lines (A549, H460, Hop-92, H23); experiment: ATP level measurement with ATP assay kit after gossypol treatment; settings: 1 μM gossypol for 1 hour; FIG. 1
Method: To examine whether energy generation in cancer cells was inhibited by gossypol, which is […], non-small cell lung cancer (NSCLC) cell lines, for example, an A549 cell line, an H460 cell line, an Hop-92 cell line and an H23 cell line, were treated with 1 μM gossypol for 1 hour, followed by measuring ATP levels using an ATP assay kit (Biovision; #K354-100). As a control, normal lung epithelial cells were used.

A549 cell line = experiment: ATP level measurement according to gossypol concentration; settings: 0, 0.1 or 1 μM gossypol for 1 hour; FIG. 2
Method: Also, to investigate a change of ATP levels according to the concentration of gossypol, an A549 cell line was treated with 0, 0.1 or 1 μM gossypol for 1 hour, followed by measuring ATP levels.

[2] = system: lung cancer cell lines (A549/ATCC, HOP-62, HOP-92, NCI-H23, NCI-H460, NCI-H522); experiment: SRB analysis of growth inhibition of lung cancer cell lines; settings: 48 hours incubation, single treatment, FIG. 3, read-out: GI50 concentration (50% growth inhibition)
Method: (§1) An SRB analysis was performed to examine the effect of gossypol on inhibiting the growth of cancer cell lines. Specifically, according to the doubling time of lung cancer cell lines, for example, A549/ATCC, HOP-62, HOP-92, NCI-H23, NCI-H460 or NCI-H522 cell lines, 5000 to 40000 cells were seeded per well and grown in a 96-well microtiter plate. After 24 hours, the cells were treated with […] of 0, 0.1, 1, 10 or 100 μM gossypol per well, and incubated at 37° C. for 48 hours. Subsequently, […] of 50% cold (4° C.) trichloroacetic acid (TCA) was added to each of the attached cell lines, and […] of 80% TCA was added to each of the suspended cell lines to fix the cells. Following the incubation of the plate at 4° C. for 1 to 3 hours, the TCA solution in the plate was discarded, and then the plate was rinsed with distilled water five times. The plate was dried at room temperature for approximately 12 to 24 hours, and then fixed cells were stained with […] of sulforhodamine B (SRB) at room temperature for 5 minutes. After staining, the plate was washed with 1% glacial acetic acid three times, and dried at room temperature for approximately 12 to 24 hours. The SRB dye was dissolved with 10 mM Trizma base, and an optical density was measured at 515 nm. The effect of gossypol on inhibiting cancer cells was represented as 50% growth inhibition (GI50).

[3] = system: AMP-activated protein kinase (AMPK) phosphorylation in A549 lung cancer cell lines; experiment: AMPK phosphorylation by western blotting; settings: 1 μM for 0, 8, 16 or 24 hours; 0, 0.1, 0.5 or 1 μM for 24 hours; FIG. 4
Method: To examine the anticancer effect according to the treatment time or concentration of gossypol, A549 lung cancer cell lines were treated with 1 μM gossypol for 0, 8, 16 or 24 hours, and then the phosphorylation of an AMP-activated protein kinase (AMPK), which is a critical protein for cancer cell division, was analyzed by western blotting.
Also, after the individual treatment of 0, 0.1, 0.5 or 1 μM gossypol for 24 hours, AMPK phosphorylation was also analyzed by western blotting.

[4] = system: cancer cell lines A549/ATCC and NCI-H460; experiment: SRB analysis of single and combination treatment; settings: 0.1-50 μM gossypol alone; FIGS. 5 and 6
Method: as §1, with “(GI50). […]” for “(GI50).”

## Cc1cc2c(C(C)C)c(O)c(O)c(C=O)c2c(O)c1-c1c(C)cc2c(C(C)C)c(O)c(O)c(C=O)c2c1O [gossypol]
[1]
  levels of ATP production: inhibited
A549 cell line
  inhibition of the ATP production, concentration dependence: dependent on the concentration of gossypol
[2]
  GI50: 5 µM
[3]
  AMPK phosphorylation: increased depending on the treatment time and concentration
[4]
  growth of the cancer cells, single treatment: hardly inhibited
